Data reported in ChEMBL document CHEMBL1212795, “Transferable quinolone resistance in Vibrio cholerae” (2010).
Values after ≈ are worked out from the molar mass of the structure shown.

Assays:
Escherichia coli [1] = assay: Antibacterial activity against azide-resistant Escherichia coli J53 SXT2 transconjugant with qnrVC3 gene expressing Vibrio cholerae 59 strain
Escherichia coli [2] = assay: Antibacterial activity against azide-resistant Escherichia coli J53 TET1 transconjugant with qnrVC3 gene expressing Vibrio cholerae 59 strain; type: functional
Escherichia coli [3] = assay: Antibacterial activity against azide-resistant Escherichia coli J53 TET2 transconjugant with qnrVC3 gene expressing Vibrio cholerae 59 strain
Escherichia coli [4] = assay: Antibacterial activity against azide-resistant Escherichia coli J53 SXT1 transconjugant with qnrVC3 gene expressing Vibrio cholerae 59 strain; type: functional
Escherichia coli [5] = assay: Antibacterial activity against azide resistant Escherichia coli J53 transformed with pQE60-qnrVC3 gene Vibrio cholerae 59 strain; type: functional
Escherichia coli [6] = assay: Antibacterial activity against azide-resistant Escherichia coli J53 containing plasmid pQE60; type: functional
Escherichia coli [7] = assay: Antibacterial activity against azide-resistant Escherichia coli J53 SXT13-1 transconjugant with qnrVC3 gene expressing Vibrio cholerae 13 strain; type: functional

| Compound | MIC (Escherichia coli [1]) | MIC (Escherichia coli [2]) | MIC (Escherichia coli [3]) | MIC (Escherichia coli [4]) | MIC (Escherichia coli [5]) | MIC (Escherichia coli [6]) | MIC (Escherichia coli [7]) |
| --- | --- | --- | --- | --- | --- | --- | --- |
| CC1(C)S[C@@H]2[C@H](NC(=O)[C@H](N)c3ccccc3)C(=O)N2[C@H]1C(=O)O [AMPICILLIN] | 4 µg/mL (≈ 11.4 µM) | 6 µg/mL (≈ 17.2 µM) | 4 µg/mL (≈ 11.4 µM) | 4 µg/mL (≈ 11.4 µM) | – | – | – |
| O=C(O)c1cn(C2CC2)c2cc(N3CCNCC3)c(F)cc2c1=O [CIPROFLOXACIN] | – | – | 0.064 µg/mL (≈ 0.193 µM) | 0.047 µg/mL (≈ 0.142 µM) | – | – | – |
| C[C@H]1COc2c(N3CCN(C)CC3)c(F)cc3c(=O)c(C(=O)O)cn1c23.C[C@H]1COc2c(N3CCN(C)CC3)c(F)cc3c(=O)c(C(=O)O)cn1c23.O [LEVOFLOXACIN] | 0.032 µg/mL | 0.032 µg/mL | 0.125 µg/mL | 0.19 µg/mL | 0.19 µg/mL | 0.032 µg/mL | – |
| CCn1cc(C(=O)O)c(=O)c2ccc(C)nc21 [NALIDIXIC ACID] | 3 µg/mL (≈ 12.9 µM) | 4 µg/mL (≈ 17.2 µM) | 4 µg/mL (≈ 17.2 µM) | 3 µg/mL (≈ 12.9 µM) | – | – | – |
| CN[C@@H]1[C@H](O[C@H]2[C@H](O[C@H]3[C@H](O)[C@@H](O)[C@H](N=C(N)N)[C@@H](O)[C@@H]3N=C(N)N)O[C@@H](C)[C@]2(O)C=O)O[C@@H](CO)[C@H](O)[C@H]1O [STREPTOMYCIN] | > 192 µg/mL | > 192 µg/mL | > 192 µg/mL | > 192 µg/mL | – | – | – |
| CN(C)[C@@H]1C(O)=C(C(N)=O)C(=O)[C@@]2(O)C(O)=C3C(=O)c4c(O)cccc4[C@@](C)(O)[C@H]3C[C@@H]12 [TETRACYCLINE] | 64 µg/mL (≈ 144 µM) | 64 µg/mL (≈ 144 µM) | 64 µg/mL (≈ 144 µM) | 64 µg/mL (≈ 144 µM) | – | – | 1.5 µg/mL (≈ 3.38 µM) |
| COc1cc(Cc2cnc(N)nc2N)cc(OC)c1OC [TRIMETHOPRIM] | > 32 µg/mL | > 32 µg/mL | > 32 µg/mL | > 32 µg/mL | – | – | – |
| GENTAMICIN | – | 0.75 µg/mL | – | 0.75 µg/mL | – | – | – |
